Data: patent US10426388B2, “Prediction of tumor recurrence by measuring oxygen saturation” (THE GENERAL HOSPITAL CORPORATION, priority 2014, dated 2019)
Several values for one entry are separate records, joined by “and”; a condition that tells them apart may be missing. Identical values can stand only once. Entries after “also recorded” stand apart in the source; their conditions may differ.

Experiments:
[1] = tested on: tumor; test: Tumor hypoxia/oxygenation after irinotecan detected by photoacoustic imaging; assay type: in vivo
[2] = Photobleaching of BPD in phantom tubes by photoacoustic imaging (fluorescence before/after PAI); assay type: physicochemical; settings: fluorescence at 690 nm
Protocol: The FDA approved photosensitizer Benzoporphryin derivative (BPD-MA) (Aveline et al., Photochemistry and Photobiology, 59(3):328-35 (1994)) with absorption peaks at […] was used for all PDT experiments. To achieve better depth of light penetration, 690 nm light was used for PDT. PAI was performed at 750 nm and 850 nm wavelength illumination to deduce StO2 from the oxygenated and deoxygenated hemoglobin signal as described by Needles et al. Needles et al., IEEE Trans Ultrason Ferroelectr Freq Control. 60(5):888-97 (2013). At these wavelengths, the absorbance of BPD is minimal (FIG. 5A). PAI was performed using pulsed nanosecond laser (10 nsec pulse width) illumination. […] Fluorescence imaging on the tubes were performed using a Maestro imaging system (CRI Inc.) with an excitation at 405 nm and emission at 690 nm.
Fluorescence imaging: Fluorescence images of two phantom tube (500 um inner diameter) containing phosphate buffered saline (PBS) and liposomal BPD were acquired using a CRi Maestro system. […] Fluorescence images at 690 nm were acquired. A custom Matlab routine was used to quantify fluorescence signals in the tubes. […] Fluorescence image of the tubes were acquired and the tubes were again irradiated with laser of the Vevo LAZR system operating at 690 nm (10 ns pulse width at 10 Hz, 44.5 mJ/cm^2 fluence). […]

[3] = tested on: subcutaneous U87 tumors; test: Longitudinal volume monitoring of subcutaneous U87 tumors after BPD-PDT; assay type: in vivo, mice
Description: Chen et al., Int J Radiat Oncol Biol Phys., 61(4):1216-26 (2005); Chen et al., Crit Rev Eukaryot Gene Expr., 16(4):279-305 (2006). It was postulated in previous work that at 1-hr the PS localizes to both cellular and vascular compartments of the tumor while at 3-hrs, most of the PS is extra vascular and primarily cellular therefore less likely to impact the tumor oxygenation status. Iinuma et al., Cancer Research, 59(24):6164-70 (1999). […] Amongst the mice that underwent PDT with 1-hr DLI, there was no regrowth for ˜two weeks and at that point 35% of the mice started to show recurrence and an increase in tumor volume (FIG. 6, dashed line), while 65% mice had no palpable tumor 30 days post therapy (FIG. 6, solid line). To test if PAI could monitor the changes in StO2 in the tumor due to PDT, The inventors designated the 1-hr DLI group with a sustained absence of palpable tumors up to 30 days post treatment (FIG. 6, triangles joined by solid line) as the “PDT responding group” and the mice in the 3-hr DLI group (FIG. 6, squares joined by solid line) were considered the “PDT non-responding group”.
(§1) Animal Model: All animal experiments were approved by the Subcommittee on Research Animal Care of Massachusetts General Hospital. Female athymic Swiss nude mice (Cox, Cambridge, Mass.), 8-10 weeks old, were anesthetized with isoflurane USP (Baxter, Deerfield, Ill.) and inoculated subcutaneously with 3×10^6 U87 cells in 300 μL, of Matrigel (BD Bioscience, San Jose, Calif.). Tumor volumes were measured using calipers by two researchers separately. Tumor volume was calculated using the formula; π/6×Length×Width×Height and photographs of the tumors were obtained.
(§2) PDT Treatment: Mice were injected intravenously with 0.5 mg/kg of BPD-MA, then PDT was performed as follows. Mice were placed under the laser light source and covered with black cloth except tumor area. 1 or 3-hrs post injection, mice were irradiated with 100 J/cm^2 using a 690 nm laser diode source (Model 7401; Intense, North Brunswick, N.J.) at a fluence rate of 100 mW/cm^2 as measured via a VEGA laser power energy meter (Ophir Laser Measurement Group, LLC).

[4] = tested on: subcutaneous U87 tumors; test: Photoacoustic imaging of tumor StO2 and HbT before and after BPD-PDT; assay type: in vivo, mice
Protocol: StO2 and HbT content were measured in both the 1-hr DLI responding group and 3-hr DLI (nonresponders) group of mice (n=6 per group) at 4 time points (before PDT (Pre-PDT), immediately post-PDT, 6-hrs and 24-hrs post-PDT) to determine if PAI could predict treatment response. FIG. 7A and FIG. 7B show representative images of the change in StO2 and HbT content at various time points in a responding and non-responding tumor respectively. Ultrasound imaging identified region of interest (green ROI in FIGS. 7A and 7B is the tumor region). FIG. 7C and FIG. 7D represent the average of StO2 values and HbT values in the tumor ROI from ˜350 B-scans per mouse (6 mice in each group, ˜55-75 B-scans per 3D tumor volume). […] This phenomena is in agreement with the studies by Wang et al. and is attributed to cell death and a decrease in the metabolic consumption of oxygen in the tumor area. Wang et al., Cancer Research, 64(20):7553-61 (2004).
as §1, §2
Ultrasound and Photoacoustic Imaging: Image acquisition and quantitation was performed using the ultrasound and photoacoustic imaging system (Vevo LAZR, FUJIFILM VisualSonics, Inc.). Light generated from a tunable laser operating at either 750 nm or 850 nm was delivered through fiber optic bundles integrated into a linear array transducer (LZ-250, 21 MHz). The Oxy-Hemo feature of the Vevo LAZR software was used to acquire the oxygen-saturation images. Mice were imaged under isoflurane. Physiological status (ECG, respiration, and body temperature) of the mice was closely monitored during image acquisition sessions. 3D ultrasound and photoacoustic images were acquired at a step size of 0.152 mm. The Vevo LAZR workstation software was utilized to mark the tumor region of interest and obtain the StO2 and HbT values for every B-scan. The workstation allowed export of the raw data. The raw data is processed using customized MATLAB routines and integrated with 3D visualization software AMIRA to obtain the prediction maps.

[5] = tested on: subcutaneous U87 tumors; test: Validation of tumor hypoxia with pimonidazole/CD31 immunofluorescence after BPD-PDT; assay type: in vivo, mice; settings: 1-hr DLI (responding group) compared with 3-hr DLI (non-responding) group
Description: The inventors next validated the hypoxic conditions observed in photoacoustic images with pimonidazole stain for hypoxia. Gerling et al., Theranostics, 4(6):604-13 (2014). Tumors were sectioned in a similar orientation as the imaging cross-section. CD31 stain was utilized to depict the tumor vasculature while pimonidazole stained the hypoxic regions. In the 1-hr DLI group (FIGS. 8A-4D), Immunofluorescence (IF) images show hypoxia adjacent to the vasculature depicted by the CD31 stain. The hypoxia is due to the vascular damage caused by PDT and disruption of the blood flow in these vessels. Zoomed images of the H&E stain of the adjacent cross section show vascular congestions. […] It is also to be noted that the fluorescence of the pimonidazole stain is stronger in the 1-hr DLI (responding group) tumor than in the 3-hr DLI (non-responding) group given the severe hypoxic conditions created by PDT.
Immunohistochemistry: An overview of the immunofluorescence staining protocol used in this study is published previously by the inventors. […] The slides were washed in PBS and secondary antibody (Donkey Anti-Goat IgG NL493 Affinity Purified PAb (R&D systems Inc) was applied for 2-hrs at room temperature. Finally the slides were washed and sealed with coverslip. A whole slide scanning fluorescence imaging system (Hamamatsu NanoZoomer 2.0-RS) at 40× magnification was used to image the slides.

[6] = responding 1-hr DLI group, 6-hrs post-PDT
[7] = responding 1-hr DLI group, 24-hrs post-PDT

CCc1c2c(nc3ccc(OC(=O)N4CCC(N5CCCCC5)CC4)cc13)-c1cc3c(c(=O)n1C2)COC(=O)[C@]3(O)CC [irinotecan]
tumor oxygenation ([1]; after irinotecan treatment, photoacoustic imaging): increases tumor oxygenation
levels of hypoxia ([1]; from 1 to 24 hours after treatment): steadily increasingly decrease

benzoporphyrin derivative monoacid ring-A [BPD]
BPD fluorescence after PAI (photobleaching) ([2]; PAI at 690 nm): significant decrease in the fluorescence; also recorded: reduced fluorescence
BPD fluorescence signal after PAI compared to pre-imaging value ([2]; PAI at 750 nm followed by 850 nm pulsed laser irradiation): no significant difference; also recorded: no significant change
mice showing recurrence (local tumor recurrence) ([3]; 1-hr DLI PDT): ~35%
time without regrowth ([3]; 1-hr DLI PDT): two weeks
mice with no palpable tumor ([3]; 1-hr DLI PDT, 30 days post therapy): 65%
increase in tumor volume ([3]; 3-hr DLI group, three weeks following PDT, 0.5 mg/kg BPD, 100 J/cm^2): approximately six-fold
tumor volume difference versus no-treatment group ([3]; 3-hr DLI group, p>0.05, Students t-test): no significant difference
HbT value versus pre-PDT value ([4]; 1-hr DLI group, 6-hrs post-PDT): significantly higher
StO2 immediately post-PDT versus pre-PDT ([4]; 1-hr DLI group, p<0.001): increase in oxygenation
HbT signal at 6-hrs and 24-hrs post-PDT ([4]; 3-hr DLI group): no statistical difference
StO2 24-hrs post-PDT versus pre-PDT ([4]; 3-hr DLI group): No statistically significant difference
StO2 immediately post-PDT versus pre-PDT ([4]; 3-hr DLI group): no statistically significant difference
change in StO2 compared to pre-PDT StO2 value ([4]; 3-hr DLI group, 6-hrs post-PDT): ~18%
StO2 ([4]; non-responding 3-hr DLI group, 6-hrs post-PDT): 47.6%±13.4%
StO2 ([4]; non-responding 3-hr DLI group, 24-hrs post-PDT): 55.3%±11.6%
StO2 [4, 6]: 2.97±1.6% and 2.9%±1.6%
decrease in StO2 relative to Pre-PDT value [4, 6]: ~95% and ~94.3%
StO2 [4, 7]: 8.03%±4.13%
decrease in StO2 relative to pre-PDT value [4, 7]: ~85% and ~84.8%
fluorescence of the pimonidazole stain (hypoxia), 1-hr DLI tumor versus 3-hr DLI tumor [5]: stronger
